# Data taken from patent EP2794556B1, “BIS-(ARYL/HETEROARYL)-METHYLENE COMPOUNDS, PHARMACEUTICAL COMPOSITIONS CONTAINING SAME AND THEIR USE FOR TREATING CANCER” (Gleason, James L., priority 2011, dated 2013).
# Where two headings read alike, the source gives them in different places.
# How the values were obtained:
# HDAC6 = target: T1, HDAC6 (Homo sapiens, UniProt Q9UBN7); experiment: Fluorogenic HDAC inhibition assay, purified enzyme
# T1 sequence (Q9UBN7 1-1215): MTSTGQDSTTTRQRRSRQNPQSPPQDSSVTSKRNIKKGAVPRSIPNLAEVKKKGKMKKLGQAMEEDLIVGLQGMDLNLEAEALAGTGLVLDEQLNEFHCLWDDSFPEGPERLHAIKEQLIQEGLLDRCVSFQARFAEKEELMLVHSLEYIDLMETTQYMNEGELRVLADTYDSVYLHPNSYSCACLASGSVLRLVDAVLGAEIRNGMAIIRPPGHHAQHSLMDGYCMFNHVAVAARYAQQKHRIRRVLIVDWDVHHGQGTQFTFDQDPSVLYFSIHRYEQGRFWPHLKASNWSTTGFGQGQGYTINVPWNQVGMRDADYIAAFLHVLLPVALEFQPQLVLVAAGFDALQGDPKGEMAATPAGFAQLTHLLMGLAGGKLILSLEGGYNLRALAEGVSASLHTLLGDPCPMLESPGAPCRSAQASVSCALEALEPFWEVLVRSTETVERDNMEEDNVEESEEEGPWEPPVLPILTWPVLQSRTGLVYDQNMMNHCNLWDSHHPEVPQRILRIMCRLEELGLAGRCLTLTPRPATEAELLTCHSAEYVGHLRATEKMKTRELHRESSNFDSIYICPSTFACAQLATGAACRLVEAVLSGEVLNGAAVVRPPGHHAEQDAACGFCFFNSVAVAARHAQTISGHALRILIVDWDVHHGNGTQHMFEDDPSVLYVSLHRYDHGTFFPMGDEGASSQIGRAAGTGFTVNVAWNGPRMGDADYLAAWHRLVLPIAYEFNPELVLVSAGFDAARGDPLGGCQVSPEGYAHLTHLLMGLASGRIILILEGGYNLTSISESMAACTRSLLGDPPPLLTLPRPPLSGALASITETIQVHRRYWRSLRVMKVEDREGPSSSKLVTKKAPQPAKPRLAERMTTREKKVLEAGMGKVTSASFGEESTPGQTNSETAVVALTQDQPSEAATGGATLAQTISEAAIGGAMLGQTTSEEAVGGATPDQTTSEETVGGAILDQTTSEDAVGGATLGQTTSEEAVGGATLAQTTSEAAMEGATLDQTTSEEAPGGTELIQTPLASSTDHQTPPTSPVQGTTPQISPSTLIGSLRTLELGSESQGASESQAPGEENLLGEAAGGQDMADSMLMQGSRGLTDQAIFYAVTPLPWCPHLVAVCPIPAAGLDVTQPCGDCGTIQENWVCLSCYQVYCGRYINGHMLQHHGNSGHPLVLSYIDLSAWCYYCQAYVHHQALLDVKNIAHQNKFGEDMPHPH
# Experimental: (§2) Fluorogenic HDAC inhibition assay. Boc-Lys(Ac)-7-amino-4-methylcoumarin (Boc-Lys(Ac)-AMC) was used as substrate for the HDAC assays. […] Trypsin was used to stop the reaction, releasing free AMC. The trypsin solution was prepared as follow: trypsin was dissolved in HDAC buffer to give a concentration of 10 mg/mL. Release of AMC was monitored by measuring the fluorescence at 460 nm (lex = 390 nm) with a microplate reader (SpectraMax Gemini) at 37 °C. The AMC signals were recorded against a blank with buffer, substrate and trypsin but without the enzyme. All experiments were carried out at least in triplicate.
# (§3) For standard HDAC assays, 50 µL of HDAC buffer was mixed with 10 µL of diluted enzyme solution in HDAC buffer at room temperature. The HDAC reaction was started by adding 40 µL of substrate solution in HDAC buffer followed by 30 min of incubation with stirring at 37 °C. The reaction was stopped by adding 100 µL of trypsin solution. After a 10 min incubation with stirring at 37 °C, the release of AMC was monitored by measuring the fluorescence. For HDAC inhibition assays, inhibitor diluted in 50 µL of HDAC buffer was mixed with 10 µL of diluted enzyme solution in HDAC buffer at room temperature. The HDAC reaction was started by adding 40 µL of substrate solution in HDAC buffer followed by 30 min of incubation with stirring at 37 °C. The reaction was stopped by adding 100 µL of trypsin solution. After a 10 min incubation with stirring at 37 °C, the release of AMC was monitored by measuring the fluorescence.
# SCC4 cells [1] = experiment: EdU cell growth assay; details: 1,25D-resistant SCC4 cells, Fig. 2e, f
# Experimental: (§4) EdU cell growth assay. Click-iT EdU Alexa Fluor high-throughput imaging (HCS) assay for cell proliferation. HCS assays were performed on AT84 mouse squamous carcinoma cell line (ATCC) following the manufacturer's instruction (Molecular Probes, Invitrogen). […] All samples were in triplicate.
# VDR [2] = target: T2, VDR (Homo sapiens, UniProt P11473); experiment: VDR agonism by induction of CYP24 gene expression (RT/PCR); format: cell-based; details: for VDR agonist activity and potency, induction of CYP24 gene expression / VDR agonism by induction of CYP24 gene expression: SCC25 cells; for VDR agonist activity and potency, induction of CYP24 gene expression: Fig. 1b, 1d; for VDR agonism by induction of CYP24 gene expression: screen at 10 µM, Fig. 1a
# T2 construct: endogenous in cells; host or cells: SCC25 human head and neck squamous carcinoma cells
# T2 sequence (P11473 1-427): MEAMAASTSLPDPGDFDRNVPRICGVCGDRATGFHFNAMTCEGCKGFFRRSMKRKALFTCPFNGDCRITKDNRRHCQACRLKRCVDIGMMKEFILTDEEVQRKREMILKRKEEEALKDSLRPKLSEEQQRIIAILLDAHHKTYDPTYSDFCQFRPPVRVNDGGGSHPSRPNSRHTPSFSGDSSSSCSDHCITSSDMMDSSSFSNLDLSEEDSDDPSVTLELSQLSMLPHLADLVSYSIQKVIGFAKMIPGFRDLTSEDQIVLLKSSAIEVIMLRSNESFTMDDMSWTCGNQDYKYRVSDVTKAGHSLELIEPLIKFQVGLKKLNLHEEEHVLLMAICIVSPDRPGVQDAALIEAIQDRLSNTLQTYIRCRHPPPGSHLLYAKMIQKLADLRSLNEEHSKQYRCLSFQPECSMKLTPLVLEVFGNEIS
# Experimental: Cell culture. Human head and neck squamous carcinoma cell lines SCC4 and SCC45 and mouse HNSCC line AT84 were purchased from American Type Culture Collection (Manassas, VA) and cultured under recommended conditions. Cells were split at 60-70% confluence, as follows: cells were washed with filtered PBS, split with a 5-10 min incubation with 1 ml Trypsin-EDTA (Invitrogen, Carlsbad, CA) in PBS, collected with medium. Following centrifugation, the supernatant was removed. Cell pellets were resuspended with DMEM-F12, and distributed on fresh media-containing dishes. For treatments, AT84 cells were split and 24h later medium was changed to DMEM + 10% charcoal-stripped FBS.
# RNA isolation and RT/PCR analysis. […]. Proc. Nat. Acad. Sci. U.S.A. 105, 8250-55. and Lamblin, M.et al Bioorganic & Medicinal Chemistry (2010) 18:4119-4137. After treatment, cells were washed with PBS, homogenized with 1ml TRIzol Reagent (Invitrogen, Carlsbad, CA), kept at room temperature for 2-5 min, collected and kept at -80 °C for at least 1h. After, thawing 0.2 ml chloroform was added. After vigorous mixing and storing for 10min, mixtures were centrifuged (10,000rpm, 15 min, 4 °C) and the upper transparent layer was transferred to a new tube. 0.5 ml isopropanol was added and the new solution was mixed. After centrifuging at 4 °C, the supernatant was discarded and 1ml of 75% ethanol was added. After centrifuging and discarding the supernatant, the pellet was air-dried for 5-10 min, and then dissolved in ddH2O. RNA concentrations were measured using a spectrophotometer, and 1-3µg of RNA were loaded for reverse transcriptase reactions (total volume: 20 µl). 80µl of ddH2O was added to the RT-product, and 1.5µl of that was used as template for the PCR reaction. Reverse transcriptase (Super Script II) was purchased from Invitrogen (Carlsbad, CA). DNA polymerase and dNTP's were ordered from Fermentas (Glen Burnie, MD).
# (§1) Test compounds (10 µM) were first screened for VDR agonism by analysis of induction of CYP24 gene expression in 1,25D-sensitive human SCC25 cells. […]. Consistent with binding to the VDR, induction of CYP24 by compound JF-B01, compound JF-B53 or compound 16 (JF-B54) was blocked (Fig. 1c). […]
# HDAC3 = HDAC3 (Homo sapiens, UniProt O15379); experiment: Fluorogenic HDAC inhibition assay, purified enzyme
# Chain of HDAC3 (O15379 whole entry, species assumed): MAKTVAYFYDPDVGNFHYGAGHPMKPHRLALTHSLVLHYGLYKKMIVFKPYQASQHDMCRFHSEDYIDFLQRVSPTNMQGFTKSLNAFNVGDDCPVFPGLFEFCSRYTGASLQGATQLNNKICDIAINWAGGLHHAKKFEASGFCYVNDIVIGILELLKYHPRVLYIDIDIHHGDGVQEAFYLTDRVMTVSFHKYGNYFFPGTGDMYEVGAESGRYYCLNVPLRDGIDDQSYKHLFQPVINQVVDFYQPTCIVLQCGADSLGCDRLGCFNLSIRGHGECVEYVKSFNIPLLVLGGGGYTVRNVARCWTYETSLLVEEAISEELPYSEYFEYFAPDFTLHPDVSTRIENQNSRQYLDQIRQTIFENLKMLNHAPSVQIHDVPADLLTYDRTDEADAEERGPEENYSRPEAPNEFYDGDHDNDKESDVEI
# Chain of HDAC3 (Q9Y618 395-489 partner limits assumed, species assumed): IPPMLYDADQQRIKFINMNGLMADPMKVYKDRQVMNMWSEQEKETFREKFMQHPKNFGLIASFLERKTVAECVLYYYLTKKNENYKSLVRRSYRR
# Experimental: as §2, §3
# AT84 cells = experiment: EdU cell growth assay; details: 1,25D-sensitive AT84 cells, Fig. 2d
# Experimental: as §4
# SCC4 cells [3] = experiment: LDH cytotoxicity assay; format: cell-based, human; details: vitamin D resistant SCC4 cells, Figures 10 and 11
# Experimental: The cytotoxic effects of compounds were screened using a Cytotoxicity Assay Kit (Cayman Chemical), which measures release of the soluble […] enzyme lactate dehydrogenase (LDH) from dying cells into the culture medium using a coupled two-step reaction. LDH in the media catalyzes the reduction of NAD+ to NADH and H+ by oxidation of lactate to pyruvate. LDH-catalyzed NADH production is then measured by following diaphorase catalyzed NADH-dependent reduction of a tetrazolium salt (INT) to highly-colored formazan which absorbs strongly at 490-520 nm.
# The proliferation assays above indicated the cessation of growth.
# SCC4 cells [4] = experiment: MTS cell proliferation assay; format: cell-based, human; details: vitamin D resistant SCC4 cells, Figures 7c, 8 and 9
# From the text: Dose-dependent effects of compounds on cell cycle progression was monitored using a CellTiter 96 Aqueous Non-Radioactive Cell Proliferation Assay Kit (Promega). The assay composed of solutions of a novel tetrazolium compound (MTS) and an electron coupling reagent (phenazine methosulfate; PMS). MTS is reduced by metabolically active cells into a soluble formazan product that absorbs at 490nm. The quantity of formazan product absorbing at 490nm is directly proportional to the number of living cells.
# VDR [5] = target: T2, VDR; experiment: Chromatin immunoprecipitation (ChIP) assay, CYP24 promoter, SCC25 cells; format: cell-based; details: Fig. 1e
# Experimental: Chromatin immunoprecipitation assays. ChIP assays were performed with sonicated extracts of SCC25 cells as described (see Wang, T.-T. et al. J Immunol (2004) 173:2909-2912). […] Immunoprecipitations were performed using normal rabbit IgG, anti-VDR antibody (c-20) (Santa Cruz Biotechnology, Santa Cruz, CA). […].
# as §1
Structure (SMILES),IC50 (HDAC6),"inhibition of proliferation, EdU incorporation (SCC4 cells [1])","VDR agonist activity and potency, induction of CYP24 gene expression (VDR [2])",IC50 (HDAC3),"cytotoxicity, LDH release (SCC4 cells [3])",antiproliferative potency (SCC4 cells [4]),also measured
"CCC(CC)(c1ccc(OCC(=O)NO)c(C)c1)c1ccc(OCC(C)(C)O)c(C)c1 [JF-B53, N-Hydroxy-2-(4-(3-(4-(2-hydroxy-2-methylpropoxy)-3-methylphenyl)pentan-3-yl)-2-methylphenoxy)acetamide]",33.3 µM,partially blocked EdU incorporation,"VDR agonist activity, but with reduced potency",17 µM,–,–,"induction of CYP24 by the compound was blocked (VDR [2]; Fig. 1c, blocking agent not given): blocked"
CCC(CC)(c1ccc(OCC(=O)O)c(C)c1)c1ccc(OCC(=O)C(C)(C)C)c(C)c1 [JF-C11],–,failed to block SCC4 proliferation,some agonist activity,–,–,–,–
CCC(CC)(c1ccc(OCC(=O)NO)c(C)c1)c1ccc(OCC(=O)NO)c(C)c1 [JF-B06],4.7 µM,–,–,–,–,–,"inhibition of proliferation, EdU incorporation (AT84 cells): failed to block AT84 proliferation; IC50 (HDAC6; read-out: HDAC6 IC50, purified enzyme in vitro): 4.7 µM; VDR agonism by induction of CYP24 gene expression (VDR [2]): completely inactive"
"CCC(CC)(c1ccc(OCC(=O)NO)cc1)c1ccc(OCC(O)C(C)(C)C)c(C)c1 (stereo not drawn) [DK-366, N-hydroxy-2-(4-(3-(4-(2-hydroxy-3,3-dimethylbutoxy)-3-methylphenyl)pentan-3-yl)phenoxy)acetamide]",6.6 to 8.2 µM,–,–,–,good cytotoxicity,low micromolar potency,–
"CCC(CC)(c1ccc(OCC(=O)NO)c(C)c1)c1ccc(OC[C@@H](O)C(C)(C)C)c(C)c1 [JF-C72, N-Hydroxy-2-(4-(3-(4-((2S)-hydroxy-3,3-dimethylbutoxy)-3-methylphenyl)pentan-3-yl)-2-methylphenoxy)acetamide]",–,–,VDR agonists with similar potencies,–,–,low micromolar potency,binding of the VDR to the vitamin D response element in the proximal promoter of the CYP24 gene (VDR [5]): induced binding of the VDR
"CCC(CC)(c1ccc(OCC(O)C(C)(C)C)c(C)c1)c1ccc(OCC(=O)NO)c(Br)c1 (stereo not drawn) [DK-309, 2-(2-bromo-4-(3-(4-(2-hydroxy-3,3-dimethylbutoxy)-3-methylphenyl)pentan-3-yl)phenoxy)-N-hydroxyacetamide]",–,–,–,–,good cytotoxicity,–,–
CCC(CC)(c1ccc(OCC(=O)NO)c(C)c1)c1ccc(OCC(CO)CO)c(C)c1 [JF-B21],37.9 µM,failed to block SCC4 proliferation,–,36.1 µM,–,–,"inhibition of proliferation, EdU incorporation (AT84 cells): failed to block AT84 proliferation; VDR agonism by induction of CYP24 gene expression (VDR [2]): completely inactive"
"CCC(CC)(c1ccc(OCC(=O)NO)c(C)c1)c1ccc(OC[C@H](O)C(C)(C)C)c(C)c1 [JF-C71, N-Hydroxy-2-(4-(3-(4-((2R)-hydroxy-3,3-dimethylbutoxy)-3-methylphenyl)pentan-3-yl)-2-methylphenoxy)acetamide]",26.1 µM,–,VDR agonists with similar potencies,22 µM,–,low micromolar potency,binding of the VDR to the vitamin D response element in the proximal promoter of the CYP24 gene (VDR [5]): induced binding of the VDR
"CCC(CC)(c1ccc(OCC(O)C(C)(C)C)c(C)c1)c1c[nH]c2cc(CCC(=O)NO)ccc12 (stereo not drawn) [DK-222, N-hydroxy-3-(3-(3-(4-(2-hydroxy-3,3-dimethylbutoxy)-3-methylphenyl)pentan-3-yl)-1H-indol-6-yl)propanamide]",–,–,–,–,good cytotoxicity,low micromolar potency,–
